Source: US6984719B1, “Peptide antagonists of prostaglandin F2α receptor” (Hospital Sainte-Justine, priority 1998, dated 2006)
Ends that are not written are not given here.

Key:
FP receptor [1] = experiment: Porcine uterine strip ex vivo contraction assay (basal and PGF2α-induced); set-up: species or system pig; settings: 100 μM peptide
Description: In ex vivo experiments using porcine uterine strips, the peptides were able to prevent both basal and PGF2α-induced contraction.
Uterine tissues from non-pregnant adult pigs were obtained from a local slaughter house and transported to the laboratory on ice. Uterine myometrial strips of approximately 1 cm in length were set up in organ baths containing Kreb's buffer equilibrated with 21% oxygen at 37° C. as we have described (Potvin, W. et al., 1990, Br. J. Pharmacol. 100:341–347; Varma, D. R. and Chemtob, S., 1993, J. Pharmacol. Expt. Ther. 265:1096–1104). Contractions were recorded by force transducers on Grass-polygraph. Strips were incubated with or without 100 μM peptides for 30 min before adding PGF2α in step-wise increments (10^−9 to 10^−6 M). Data were expressed as percentage increase over the basal level of average tension (g).
A graph of spontaneous uterine contractions (known to be dependent upon prostanoids, mainly PGF2α) in the absence and the presence of 100 μM PCP-8 are shown in FIG. 3A.

human FP receptor = target: T1, human FP receptor (Homo sapiens, UniProt P43088); experiment: PGF2α-induced phosphoinositide hydrolysis (inositol phosphate synthesis) in HEK293 cells expressing FP receptor; type: cell-based; settings: 1 μM PGF2α
T1 construct: expressed in transfected cells
T1 sequence (P43088 whole entry): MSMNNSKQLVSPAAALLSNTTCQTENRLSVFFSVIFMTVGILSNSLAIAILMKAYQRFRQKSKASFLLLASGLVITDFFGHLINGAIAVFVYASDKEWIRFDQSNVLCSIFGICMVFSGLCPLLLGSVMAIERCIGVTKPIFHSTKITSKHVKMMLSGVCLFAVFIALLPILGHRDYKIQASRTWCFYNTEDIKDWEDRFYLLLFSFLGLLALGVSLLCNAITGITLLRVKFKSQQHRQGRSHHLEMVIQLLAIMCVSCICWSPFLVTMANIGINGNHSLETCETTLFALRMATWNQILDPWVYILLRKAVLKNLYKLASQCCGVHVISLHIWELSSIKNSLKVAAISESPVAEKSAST
Description: Both PCP-8 and -10 were tested in HEK293 cells expressing the human FP receptor. For this purpose, HEK 293 cells stably expressing human FP receptor were plated in 12-well plates in DMEM medium containing 10% fetal bovine serum, penicillin (10 U/ml) and streptomycin (10 μg/ml) and cultured in a humidified atmosphere containing 5% CO2 at 37° C. After the wells were 80% confluent, the cells were labeled with 2 μCi/ml of [^3H]-myo inositol overnight. Next day, the cells were washed once with PBS, and incubated in 0.5 ml of Kreb's buffer containing 10 mM LiCl and indicated concentrations of PCP peptides for 30 min. PGF2α at 1 μM was added to the cells and the incubation was carried out for an additional 30 min. The cells were solubilized with 0.1 N NaOH for 10 min and neutralized with 0.1 N formic acid. The lysates were collected and 1 ml each of methanol and chloroform were sequentially added and vortexed briefly. After centrifugation to separate the phases, inositol phosphates were separated by ion exchange chromatography as described below (Berridge, M. J. et al., 1983, Biochem. J. 212:473–482).
Briefly, the medium was discarded and the IP3 synthesis was stopped by adding 0.6 ml ice-cold methanol. The cells were scraped and collected into polypropylene tubes. Distilled water (0.5 ml) and chloroform (0.6 ml) were added and vigorously vortexed for 2 min. The phases were separated by centrifugation at 6000×g for 10 min. The aqueous phase was applied to AG-1X-8™ (Formate form) anion exchange columns (1 ml bed volume) and free inositol was eluted with 10 ml of water, followed by 60 mM ammonium formate in 0.1 M formic acid. Then, the inositol phosphates were eluted with 5 ml of 1.2 M ammonium formate in 0.1 M formic acid. After adding 3 volumes of scintillation cocktail (Optiphase-HiSafe III), the eluates were counted by scintillation spectrophotometry.
Data are expressed as fold stimulation of inositol phosphate synthesis by 1 μM PGF2α compared to the unstimulated controls. […] The half maximal inhibitory concentrations for both PCP-8 and -10 were slightly less than 100 μM.

FP receptor [2] = target: T2, FP receptor (Sus scrofa, UniProt C6GAG8); experiment: Porcine eyecup model of ex vivo vasomotricity assay, PGF2α-induced constriction of retinal microvessels; set-up: species or system pig
T2 construct: from tissue; host or cells: eyecup / retinal microvessels of newborn pigs pretreated with ibuprofen
T2 sequence (C6GAG8 1-362): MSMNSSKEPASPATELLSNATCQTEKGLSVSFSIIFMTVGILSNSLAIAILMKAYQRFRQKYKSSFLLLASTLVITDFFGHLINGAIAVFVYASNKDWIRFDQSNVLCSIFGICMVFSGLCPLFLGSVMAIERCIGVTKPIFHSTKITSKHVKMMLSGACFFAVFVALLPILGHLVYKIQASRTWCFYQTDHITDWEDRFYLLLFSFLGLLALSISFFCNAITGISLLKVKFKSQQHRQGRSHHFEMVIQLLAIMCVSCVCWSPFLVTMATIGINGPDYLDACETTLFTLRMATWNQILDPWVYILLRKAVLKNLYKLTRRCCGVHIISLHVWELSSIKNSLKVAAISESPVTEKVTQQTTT
Description: In order to see if the peptides could inhibit FP function using an ex vivo model, we chose porcine eyecup model, an ex vivo assay of vascular constriction in porcine retinas which we previously described and validated (Li et al., 1996 J. Pharmacol. Expt. Therapeut. 278: 370–377; Li et al., 1997 Am. J. Physiol. 273: R1283–90; Abran et al., 1997 Am. J. Physiol. 272: R995–1001). Since FP receptor densities in newborn vasculature are minimal due to down regulation by high levels of circulating prostaglandins in the perinatal period, the newborn pigs were treated with a prostaglandin synthetase blocker, ibuprofen (30 mg/Kg of bodyweight/8 h for 24 h) to increase the density of the receptors as well as their vasomotor effects. By inhibiting circulating prostaglandins, we were able to show potent inhibition of FP receptor-mediated second messenger synthesis as well as FP-mediated vascular constriction in this eyecup model.
(§1) To prepare eyecups, a circular incision was made 3–4 mm posterior to ora serrata to remove the […] segment and vitreous body with minimal handling of the retina. The remaining eyecup was fixed with pins to a wax base in a 20 ml tissue bath containing 20 ml of Kreb's buffer (pH 7.35–7.45), protease inhibitors, leupetin and aprotinin (10 μg/ml each), and equilibrated with 21% oxygen and 5% carbon dioxide at 37° C. The preparations were allowed to stabilize for 30 min. Peptides at 100 μM were added and incubation was continued for 30 min before the addition of PGF2α.
(§2) Cumulative concentration-responses of PGF2α, and TxA2 mimetic, U46619, (10^−10 to 10^−5 M) curves were constructed separately. To assess the reversibility of the antagonists, the eyecups were thoroughly washed (which would wash away the peptide) with incubation medium and concentration response curves for PGF2α were determined. The outer vessel diameter was recorded with a video camera mounted on a dissecting microscope (Zeiss M 400™) and the responses were quantified by a digital image analyzer (Sigma Scan Software, Jandel Scientific, Corte Madera, Calif.). Vascular diameter was recorded before and 10 min following the topical application of the agent.
^1Percent vasomotor response in the presence of 100 μM peptide is calculated as percent change in average vascular diameter produced by 10^−7 M PGF2α to the eyecup in the presence of the peptide compared to maximal constriction observed in the absence of the peptide.
^2Percent inhibition produced by each peptide is calculated as (100-percent vasomotor response).
Small letters indicate L-amino acids and capital letters indicate D-amino acids. I=isoleucine; L=leucine; G=glycine; H=histidine; R=Arginine; D=Aspartic acid; Y=Tyrosine; K=Lysine; A=Alanine; W=Tryptophan; E=Glutamic acid; F=Phenyl alanine; Q=Glutamine; N=Aspargine; P=Proline; S=Serine; X=Cyclohexyl alanine. Peptides were dissolved in DMSO freshly just before the experiment as 10 mM stocks and added to the eye cups 30 min before the addition of 10^−7 M PGF2α.
These peptides incorporate L- to D-amino acid changes, deletions, subtle variations in aromaticity, hydrogen bond donor status as opposed to ionic interactions and hydrophobicity.

TP receptor = experiment: Porcine eyecup model of ex vivo vasomotricity assay, constriction by TxA2 mimetic U46619; set-up: species or system pig; settings: peptide 100 μM; 1 μM U46619 / dose response
Description: as §1, §2
The peptide PCP-10 had no effect on the basal tone (diameter of the microvessel) of the vessel (FIG. 2A; left panels). […]

## ILGHRDYK-OH [PCP-8, ilghrdyk]
FP receptor [1]; all concentrations of PGF2α tested (10^−9 to 10^−6 M)
  reduction in uterine contraction: More than 60%
FP receptor [1]; porcine uterine strips
  effect on spontaneous (basal) uterine contraction: reduced the force of basal contraction
Human FP receptor; HEK293 cells stably expressing human FP receptor, read-out: half maximal inhibitory concentration, inositol phosphate synthesis
  IC50: < 100 µM
Human FP receptor; peptide at 100 μM
  inhibition of inositol phosphate synthesis initiated by PGF2α: potently inhibited
FP receptor [2]; 100 μM peptide, 10^−7 M PGF2α, calculated as 100-percent vasomotor response, read-out: % inhibition of maximal response
  Emax: 50%
FP receptor [2]; peptide 100 μM, even at concentrations exceeding 1 μM of PGF2α
  effect on vasomotor responses in PGF2α dose response: abrogated the vasomotor responses
TP receptor
  effect on vasoconstriction by TxA2 mimetic U46619: no effect
